Experimental data from patent US20170320870A1 (Medical Research Council Technology, priority 2009, published 2017).

Columns and labels:
Assay in all cases: Kinase selectivity: percentage inhibition of each specific kinase at 1 μM inhibitor concentration
Format in all cases: biochemical
[1] = biological target: each specific kinase (kinase selectivity panel, Table 2) (Homo sapiens, UniProt O14757); conditions: CHK1
Description: (§1) Values are expressed as percentage inhibition of the each specific kinase at 1 μM inhibitor concentration.

[2] = biological target: each specific kinase (kinase selectivity panel, Table 2) (Homo sapiens, UniProt O14920); conditions: IKKb
Description: as §1

[3] = biological target: each specific kinase (kinase selectivity panel, Table 2) (Homo sapiens, UniProt O43353); conditions: RIPK2
Description: as §1

[4] = biological target: each specific kinase (kinase selectivity panel, Table 2) (Homo sapiens, UniProt O60285); conditions: NUAK1
Description: as §1

[5] = biological target: each specific kinase (kinase selectivity panel, Table 2) (Homo sapiens, UniProt P06239); conditions: Lck
Description: as §1

[6] = biological target: each specific kinase (kinase selectivity panel, Table 2) (Homo sapiens, UniProt P08069); conditions: IGF-1R
Description: as §1

[7] = biological target: each specific kinase (kinase selectivity panel, Table 2) (Homo sapiens, UniProt P11362); conditions: FGF-R1
Description: as §1

[8] = biological target: each specific kinase (kinase selectivity panel, Table 2) (Homo sapiens, UniProt P17252); conditions: PKCa
Description: as §1

[9] = biological target: each specific kinase (kinase selectivity panel, Table 2) (Homo sapiens, UniProt P17612); conditions: PKA
Description: as §1

[10] = biological target: each specific kinase (kinase selectivity panel, Table 2) (Homo sapiens, UniProt P24941); conditions: CDK2-Cyclin A
Description: as §1

[11] = biological target: each specific kinase (kinase selectivity panel, Table 2) (Homo sapiens, UniProt P27361); conditions: ERK1
Description: as §1

[12] = biological target: each specific kinase (kinase selectivity panel, Table 2) (Homo sapiens, UniProt P27448); conditions: MARK3
Description: as §1

[13] = biological target: each specific kinase (kinase selectivity panel, Table 2) (Homo sapiens, UniProt P28482); conditions: ERK2
Description: as §1

[14] = biological target: each specific kinase (kinase selectivity panel, Table 2) (Homo sapiens, UniProt P31751); conditions: PKBb
Description: as §1

[15] = biological target: each specific kinase (kinase selectivity panel, Table 2) (Homo sapiens, UniProt P33981); conditions: TTK
Description: as §1

[16] = biological target: each specific kinase (kinase selectivity panel, Table 2) (Homo sapiens, UniProt P45983); conditions: JNK1
Description: as §1

[17] = biological target: each specific kinase (kinase selectivity panel, Table 2) (Homo sapiens, UniProt P45984); conditions: JNK2
each specific kinase (kinase selectivity panel, Table 2) (Homo sapiens, UniProt P45984), sequence (P45984 whole entry): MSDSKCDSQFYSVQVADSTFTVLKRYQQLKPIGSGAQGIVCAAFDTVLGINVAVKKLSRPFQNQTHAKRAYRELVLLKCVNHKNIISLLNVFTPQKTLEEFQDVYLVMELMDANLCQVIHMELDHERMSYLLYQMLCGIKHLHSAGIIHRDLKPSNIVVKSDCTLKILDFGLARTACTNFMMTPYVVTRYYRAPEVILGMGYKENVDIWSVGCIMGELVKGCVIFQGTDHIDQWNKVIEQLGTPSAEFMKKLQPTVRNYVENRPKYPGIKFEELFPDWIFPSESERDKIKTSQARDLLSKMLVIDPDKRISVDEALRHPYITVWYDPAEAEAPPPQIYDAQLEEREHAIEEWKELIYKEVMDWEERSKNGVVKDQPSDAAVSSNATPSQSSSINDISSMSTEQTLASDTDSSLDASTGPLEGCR
Description: as §1

[18] = biological target: each specific kinase (kinase selectivity panel, Table 2) (Homo sapiens, UniProt P51955); conditions: NEK2a
Description: as §1

[19] = biological target: each specific kinase (kinase selectivity panel, Table 2) (Homo sapiens, UniProt P53350); conditions: PLK1
Description: as §1

[20] = biological target: each specific kinase (kinase selectivity panel, Table 2) (Homo sapiens, UniProt P68400); conditions: CK2
Description: as §1

[21] = biological target: each specific kinase (kinase selectivity panel, Table 2) (Homo sapiens, UniProt Q02750); conditions: MKK1
Description: as §1

[22] = biological target: each specific kinase (kinase selectivity panel, Table 2) (Homo sapiens, UniProt Q05513); conditions: PKCz
Description: as §1

[23] = biological target: each specific kinase (kinase selectivity panel, Table 2) (Homo sapiens, UniProt Q14012); conditions: CAMK1
Description: as §1

[24] = biological target: each specific kinase (kinase selectivity panel, Table 2) (Homo sapiens, UniProt Q14164); conditions: IKKe
Description: as §1

[25] = biological target: each specific kinase (kinase selectivity panel, Table 2) (Homo sapiens, UniProt Q15139); conditions: PKD1
Description: as §1

[26] = biological target: each specific kinase (kinase selectivity panel, Table 2) (Homo sapiens, UniProt Q15746); conditions: SmMLCK
each specific kinase (kinase selectivity panel, Table 2) (Homo sapiens, UniProt Q15746), sequence (Q15746 whole entry): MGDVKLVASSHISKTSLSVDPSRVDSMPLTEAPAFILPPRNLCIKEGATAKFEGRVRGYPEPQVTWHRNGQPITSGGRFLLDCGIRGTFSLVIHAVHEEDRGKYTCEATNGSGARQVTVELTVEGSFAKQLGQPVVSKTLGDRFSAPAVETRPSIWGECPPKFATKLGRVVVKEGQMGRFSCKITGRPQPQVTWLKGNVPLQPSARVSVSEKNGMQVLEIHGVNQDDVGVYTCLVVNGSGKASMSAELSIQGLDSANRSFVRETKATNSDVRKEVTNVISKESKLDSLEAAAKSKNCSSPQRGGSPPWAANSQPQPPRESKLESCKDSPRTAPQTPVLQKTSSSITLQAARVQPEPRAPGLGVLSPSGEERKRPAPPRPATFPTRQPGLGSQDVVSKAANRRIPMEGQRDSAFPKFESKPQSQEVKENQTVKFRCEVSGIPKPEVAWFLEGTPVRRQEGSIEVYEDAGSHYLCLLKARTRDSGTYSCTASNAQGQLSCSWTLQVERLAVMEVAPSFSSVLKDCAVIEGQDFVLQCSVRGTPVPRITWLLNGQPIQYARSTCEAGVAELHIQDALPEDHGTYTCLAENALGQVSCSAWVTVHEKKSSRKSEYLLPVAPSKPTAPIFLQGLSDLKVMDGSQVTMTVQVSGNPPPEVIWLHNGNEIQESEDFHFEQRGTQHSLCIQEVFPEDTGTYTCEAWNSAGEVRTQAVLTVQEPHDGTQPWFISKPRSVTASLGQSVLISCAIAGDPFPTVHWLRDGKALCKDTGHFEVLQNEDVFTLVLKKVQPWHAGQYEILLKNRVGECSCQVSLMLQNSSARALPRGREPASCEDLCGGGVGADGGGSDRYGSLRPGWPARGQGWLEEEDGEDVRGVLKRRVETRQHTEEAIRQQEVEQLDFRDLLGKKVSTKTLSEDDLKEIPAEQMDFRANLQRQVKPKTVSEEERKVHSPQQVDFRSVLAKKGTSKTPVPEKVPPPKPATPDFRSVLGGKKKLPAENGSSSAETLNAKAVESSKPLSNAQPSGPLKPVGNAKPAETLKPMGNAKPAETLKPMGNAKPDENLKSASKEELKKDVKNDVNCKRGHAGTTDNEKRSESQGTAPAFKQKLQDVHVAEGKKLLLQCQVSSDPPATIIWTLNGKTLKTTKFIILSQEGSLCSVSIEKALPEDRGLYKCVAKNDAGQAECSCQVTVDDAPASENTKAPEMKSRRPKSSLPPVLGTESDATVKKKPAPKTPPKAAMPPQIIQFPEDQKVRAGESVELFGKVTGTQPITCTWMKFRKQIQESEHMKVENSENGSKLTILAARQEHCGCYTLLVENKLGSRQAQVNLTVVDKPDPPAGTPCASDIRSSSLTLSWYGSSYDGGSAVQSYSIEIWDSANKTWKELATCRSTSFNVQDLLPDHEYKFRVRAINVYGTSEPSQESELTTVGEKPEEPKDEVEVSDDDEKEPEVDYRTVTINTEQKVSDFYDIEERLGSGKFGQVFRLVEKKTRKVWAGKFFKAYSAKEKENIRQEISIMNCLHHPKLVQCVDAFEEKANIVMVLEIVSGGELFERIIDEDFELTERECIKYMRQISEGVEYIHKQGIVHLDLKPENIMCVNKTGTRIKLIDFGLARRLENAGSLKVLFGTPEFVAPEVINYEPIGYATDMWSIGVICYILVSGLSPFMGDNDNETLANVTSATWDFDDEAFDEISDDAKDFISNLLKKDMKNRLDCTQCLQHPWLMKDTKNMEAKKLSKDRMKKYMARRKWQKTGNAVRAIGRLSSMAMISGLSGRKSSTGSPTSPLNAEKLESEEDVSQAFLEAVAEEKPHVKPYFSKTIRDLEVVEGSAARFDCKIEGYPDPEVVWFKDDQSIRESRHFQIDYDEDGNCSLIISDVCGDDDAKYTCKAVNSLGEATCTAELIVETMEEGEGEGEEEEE
Description: as §1

[27] = biological target: each specific kinase (kinase selectivity panel, Table 2) (Homo sapiens, UniProt Q16539); conditions: p38a MAPK
each specific kinase (kinase selectivity panel, Table 2) (Homo sapiens, UniProt Q16539), sequence (Q16539 whole entry): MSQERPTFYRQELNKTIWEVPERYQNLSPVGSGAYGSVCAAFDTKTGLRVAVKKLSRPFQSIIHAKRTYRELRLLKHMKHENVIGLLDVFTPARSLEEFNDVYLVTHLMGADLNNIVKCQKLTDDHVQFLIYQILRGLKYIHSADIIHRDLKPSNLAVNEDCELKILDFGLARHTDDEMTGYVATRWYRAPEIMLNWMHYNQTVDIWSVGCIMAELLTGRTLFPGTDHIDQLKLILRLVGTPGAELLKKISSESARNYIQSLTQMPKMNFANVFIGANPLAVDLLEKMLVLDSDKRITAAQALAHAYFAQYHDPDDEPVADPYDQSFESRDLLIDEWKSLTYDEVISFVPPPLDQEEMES
Description: as §1

[28] = biological target: each specific kinase (kinase selectivity panel, Table 2) (Homo sapiens, UniProt Q8IWQ3); conditions: BRSK2
each specific kinase (kinase selectivity panel, Table 2) (Homo sapiens, UniProt Q8IWQ3), sequence (Q8IWQ3 whole entry): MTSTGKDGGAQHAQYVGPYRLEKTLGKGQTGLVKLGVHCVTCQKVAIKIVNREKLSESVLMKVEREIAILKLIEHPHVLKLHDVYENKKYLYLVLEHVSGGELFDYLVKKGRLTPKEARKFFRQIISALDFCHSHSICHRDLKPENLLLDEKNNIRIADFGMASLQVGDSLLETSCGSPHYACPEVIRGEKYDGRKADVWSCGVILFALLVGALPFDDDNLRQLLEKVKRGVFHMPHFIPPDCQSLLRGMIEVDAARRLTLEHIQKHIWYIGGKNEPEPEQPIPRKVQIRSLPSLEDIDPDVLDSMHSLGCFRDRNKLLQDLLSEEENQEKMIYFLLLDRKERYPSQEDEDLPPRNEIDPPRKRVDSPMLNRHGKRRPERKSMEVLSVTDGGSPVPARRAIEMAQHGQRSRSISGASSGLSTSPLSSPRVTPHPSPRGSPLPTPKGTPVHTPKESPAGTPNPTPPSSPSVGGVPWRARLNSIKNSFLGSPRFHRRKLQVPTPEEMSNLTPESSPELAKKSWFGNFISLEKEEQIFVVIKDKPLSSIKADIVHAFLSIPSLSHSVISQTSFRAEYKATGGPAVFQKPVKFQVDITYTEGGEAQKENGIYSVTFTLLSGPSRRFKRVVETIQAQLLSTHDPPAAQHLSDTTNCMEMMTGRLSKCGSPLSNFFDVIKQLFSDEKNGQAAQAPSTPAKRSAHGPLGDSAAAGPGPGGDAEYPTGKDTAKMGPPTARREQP
Description: as §1

[29] = biological target: each specific kinase (kinase selectivity panel, Table 2) (Homo sapiens, UniProt Q8N4C8); conditions: MINK1
each specific kinase (kinase selectivity panel, Table 2) (Homo sapiens, UniProt Q8N4C8), sequence (Q8N4C8 whole entry): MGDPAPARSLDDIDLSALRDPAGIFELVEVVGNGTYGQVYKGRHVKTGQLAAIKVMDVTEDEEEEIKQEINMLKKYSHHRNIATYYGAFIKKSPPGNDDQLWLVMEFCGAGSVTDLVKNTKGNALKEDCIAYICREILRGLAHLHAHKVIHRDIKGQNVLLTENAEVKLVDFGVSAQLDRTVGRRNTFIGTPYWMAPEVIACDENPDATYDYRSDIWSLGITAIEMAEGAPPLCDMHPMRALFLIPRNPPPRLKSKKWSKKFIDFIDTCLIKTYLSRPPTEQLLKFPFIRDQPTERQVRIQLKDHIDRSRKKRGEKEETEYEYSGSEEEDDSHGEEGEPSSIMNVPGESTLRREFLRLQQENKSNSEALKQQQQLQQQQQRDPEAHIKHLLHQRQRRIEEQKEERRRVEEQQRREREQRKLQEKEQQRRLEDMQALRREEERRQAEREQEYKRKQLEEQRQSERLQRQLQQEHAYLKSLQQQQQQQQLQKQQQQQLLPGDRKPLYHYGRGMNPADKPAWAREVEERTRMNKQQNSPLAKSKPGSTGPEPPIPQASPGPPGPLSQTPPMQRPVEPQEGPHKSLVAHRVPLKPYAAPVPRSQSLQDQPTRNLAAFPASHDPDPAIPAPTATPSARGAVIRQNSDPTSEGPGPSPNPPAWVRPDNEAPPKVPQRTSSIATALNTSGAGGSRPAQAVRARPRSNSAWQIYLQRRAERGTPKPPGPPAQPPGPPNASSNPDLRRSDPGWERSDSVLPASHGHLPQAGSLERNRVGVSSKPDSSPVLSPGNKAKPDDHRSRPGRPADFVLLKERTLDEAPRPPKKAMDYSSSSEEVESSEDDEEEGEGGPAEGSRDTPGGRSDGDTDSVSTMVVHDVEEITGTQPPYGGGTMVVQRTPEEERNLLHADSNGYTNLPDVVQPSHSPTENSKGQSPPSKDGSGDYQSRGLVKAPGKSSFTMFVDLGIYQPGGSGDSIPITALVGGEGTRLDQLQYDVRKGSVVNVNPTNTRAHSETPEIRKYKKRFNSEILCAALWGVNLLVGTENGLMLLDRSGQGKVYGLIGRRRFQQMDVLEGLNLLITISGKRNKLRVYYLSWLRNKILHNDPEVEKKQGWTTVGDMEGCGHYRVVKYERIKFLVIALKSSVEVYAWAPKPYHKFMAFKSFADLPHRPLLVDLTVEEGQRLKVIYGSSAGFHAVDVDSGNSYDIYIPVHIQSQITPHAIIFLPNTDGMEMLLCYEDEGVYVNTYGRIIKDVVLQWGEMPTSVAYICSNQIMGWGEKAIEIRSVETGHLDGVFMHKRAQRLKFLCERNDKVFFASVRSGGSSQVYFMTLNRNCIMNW
Description: as §1

[30] = biological target: each specific kinase (kinase selectivity panel, Table 2) (Homo sapiens, UniProt Q96GD4); conditions: Aurora B
Description: as §1

[31] = biological target: each specific kinase (kinase selectivity panel, Table 2) (Homo sapiens, UniProt Q9BUB5); conditions: MNK1
Description: as §1

[32] = biological target: each specific kinase (kinase selectivity panel, Table 2) (Homo sapiens, UniProt Q9HBH9); conditions: MNK2
Description: as §1

[33] = biological target: each specific kinase (kinase selectivity panel, Table 2) (Homo sapiens, UniProt Q9P289); conditions: MST4
Description: as §1

[34] = biological target: each specific kinase (kinase selectivity panel, Table 2) (Rattus norvegicus, UniProt Q62868); conditions: ROCK 2
Description: as §1

Structure (SMILES) | percentage inhibition of CHK1 [1] [percentage] | percentage inhibition of IKKb [2] [percentage] | percentage inhibition of RIPK2 [3] [percentage] | percentage inhibition of NUAK1 [4] [percentage] | percentage inhibition of Lck [5] [percentage] | percentage inhibition of IGF-1R [6] [percentage] | percentage inhibition of FGF-R1 [7] [percentage] | percentage inhibition of PKCa [8] [percentage] | percentage inhibition of PKA [9] [percentage] | percentage inhibition of CDK2-Cyclin A [10] [percentage] | percentage inhibition of ERK1 [11] [percentage] | percentage inhibition of MARK3 [12] [percentage] | percentage inhibition of ERK2 [13] [percentage] | percentage inhibition of PKBb [14] [percentage] | percentage inhibition of TTK [15] [percentage] | percentage inhibition of JNK1 [16] [percentage] | percentage inhibition of JNK2 [17] [percentage] | percentage inhibition of NEK2a [18] [percentage] | percentage inhibition of PLK1 [19] [percentage] | percentage inhibition of CK2 [20] [percentage] | further results
CC[C@H](C)Oc1nccc2[nH]nc(C)c12 [Example 121, 4-((S)-sec-Butoxy)-3-methyl-1H-pyrazolo[4,3-c]pyridine] | 10 | 15 | 1 | 59 | 0 | 46 | 36 | 2 | 26 | 61 | 1 | 12 | 0 | 3 | 30 | 7 | 0 | 0 | 19 | 0 | percentage inhibition of MKK1 [21]: 47 percentage; percentage inhibition of PKCz [22]: 0 percentage; percentage inhibition of CAMK1 [23]: 5 percentage; percentage inhibition of IKKe [24]: 19 percentage; percentage inhibition of PKD1 [25]: 29 percentage; percentage inhibition of SmMLCK [26]: 22 percentage; percentage inhibition of p38a MAPK [27]: 0 percentage; percentage inhibition of BRSK2 [28]: 13 percentage; percentage inhibition of MINK1 [29]: 17 percentage; percentage inhibition of Aurora B [30]: 0 percentage; percentage inhibition of MNK1 [31]: 1 percentage; percentage inhibition of MNK2 [32]: 7 percentage; percentage inhibition of MST4 [33]: 23 percentage; percentage inhibition of ROCK 2 [34]: 57 percentage
O=C(CCc1n[nH]c2ccnc(NC3CCCCC3)c12)N1CCC[C@H](c2ccccc2)C1 [Example 172, 3-(4-Cyclohexylamino-1H-pyrazolo[4,3-c]pyridin-3-yl)-1-((R)-3-phenyl-piperidin-1-yl)-propan-1-one] | 0 | 22 | 0 | 14 | 25 | 18 | 0 | 0 | 5 | 0 | 0 | 18 | 9 | 0 | 14 | 17 | 22 | 5 | 3 | 3 | percentage inhibition of MKK1 [21]: 17 percentage; percentage inhibition of PKCz [22]: 10 percentage; percentage inhibition of CAMK1 [23]: 14 percentage; percentage inhibition of IKKe [24]: 17 percentage; percentage inhibition of PKD1 [25]: 1 percentage; percentage inhibition of SmMLCK [26]: 18 percentage; percentage inhibition of p38a MAPK [27]: 6 percentage; percentage inhibition of BRSK2 [28]: 0 percentage; percentage inhibition of MINK1 [29]: 18 percentage; percentage inhibition of Aurora B [30]: 15 percentage; percentage inhibition of MNK1 [31]: 0 percentage; percentage inhibition of MNK2 [32]: 0 percentage; percentage inhibition of MST4 [33]: 10 percentage; percentage inhibition of ROCK 2 [34]: 7 percentage
